Data reported in patent publication US8802597B2, “Herbicidal pyrimidines” (E I du Pont de Nemours and Company, priority 2003, dated 2014).
Where two headings read alike, the source gives them in different places.

Experiments:
Format in all cases: in vivo
[1] = system: Surinam grass (Brachiaria decumbens); experiment: Test B pre/postemergence; settings: Urochloa decumbens; for pest or weed control at 125 g/ha: 125 g ai/ha; for pest or weed control at 500 g/ha: 500 g ai/ha
Outline: (§1)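 Following sowing, compounds in a surfactant-bearing non-phytotoxic solvent were applied preemergence; emerged plants 2 to 18 cm high got postemergence treatment concurrently. Evaluation: 13 to 15 days later, greenhouse, 0–100 visual scale.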

[2] = system: barnyardgrass (Echinochloa crus-galli); experiment: Test B pre/postemergence; settings: Echinochloa crus-galli; for pest or weed control at 125 g/ha: 125 g ai/ha; for pest or weed control at 500 g/ha: 500 g ai/ha
Outline: as §1

[3] = system: cocklebur (Xanthium strumarium); experiment: Test B pre/postemergence; settings: Xanthium strumarium; for pest or weed control at 125 g/ha: 125 g ai/ha; for pest or weed control at 500 g/ha: 500 g ai/ha
Outline: as §1

[4] = system: corn (Zea mays); experiment: Test B pre/postemergence; settings: Zea mays
Outline: as §1

[5] = system: crabgrass (Digitaria sanguinalis); experiment: Test B pre/postemergence; settings: Digitaria sanguinalis; for pest or weed control at 125 g/ha: 125 g ai/ha; for pest or weed control at 500 g/ha: 500 g ai/ha
Outline: as §1

[6] = system: giant foxtail (Setaria faberii); experiment: Test B pre/postemergence; settings: Setaria faberi; for pest or weed control at 125 g/ha: 125 g ai/ha; for pest or weed control at 500 g/ha: 500 g ai/ha
Outline: as §1

[7] = system: lambsquarters (Chenopodium album); experiment: Test B pre/postemergence; settings: Chenopodium album; for pest or weed control at 125 g/ha: 125 g ai/ha; for pest or weed control at 500 g/ha: 500 g ai/ha
Outline: as §1

[8] = system: morningglory (Ipomoea coccinea); experiment: Test B pre/postemergence; settings: Ipomoea; for pest or weed control at 125 g/ha: 125 g ai/ha; for pest or weed control at 500 g/ha: 500 g ai/ha
Outline: as §1

[9] = system: pigweed (Amaranthus retroflexus); experiment: Test B pre/postemergence; settings: Amaranthus retroflexus; for pest or weed control at 125 g/ha: 125 g ai/ha; for pest or weed control at 500 g/ha: 500 g ai/ha
Outline: as §1

[10] = system: velvetleaf (Abutilon theophrasti); experiment: Test B pre/postemergence; settings: Abutilon theophrasti; for pest or weed control at 125 g/ha: 125 g ai/ha; for pest or weed control at 500 g/ha: 500 g ai/ha
Outline: as §1

[11] = system: wheat (Triticum aestivum); experiment: Test B pre/postemergence; settings: Triticum aestivum; for plant injury at 125 g/ha: 125 g ai/ha; for plant injury at 500 g/ha: 500 g ai/ha
Outline: as §1

[12] = system: blackgrass (Alopecurus myosuroides); experiment: Test B postemergence; settings: Alopecurus myosuroides, post-emergence
Outline: as §1

[13] = system: wild oat (Avena fatua); experiment: Test B postemergence; settings: Avena fatua, post-emergence
Outline: as §1

[14] = system: barnyardgrass (Echinochloa crus-galli); experiment: Test B flooded paddy test; settings: Echinochloa crus-galli, Flood, 1000 g ai/ha; scale 0 (no effect) to 100 (complete control); read-out: Plant response rating, Barnyardgrass
Outline: (§2)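 Rice, umbrella sedge, duck salad and barnyardgrass grown to 2-leaf stage under flooded paddy conditions and treated with formulated test chemicals. Kept in greenhouse 13–15 days, then visually rated against untreated controls on a 0–100 scale (0 no effect, 100 complete control).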

[15] = system: duck salad (Heteranthera limosa); experiment: Test B flooded paddy test; settings: Heteranthera limosa, Flood, 1000 g ai/ha; scale 0 to 100; read-out: Plant response rating, Ducksalad
Outline: as §2

[16] = system: rice (Oryza sativa); experiment: Test B flooded paddy test; settings: Oryza sativa, Flood, 1000 g ai/ha; scale 0 to 100; read-out: Plant response rating, Rice
Outline: as §2

[17] = system: umbrella sedge (Cyperus difformis); experiment: Test B flooded paddy test; settings: Cyperus difformis, Flood, 1000 g ai/ha; scale 0 to 100; read-out: Plant response rating, Sedge, Umbrella
Outline: as §2

[18] = pre-emergence, Preemergence, scale 0 to 100 (0 no effect, 100 complete control), read-out: Plant response rating, Wheat

`COC(=O)c1nc(C2CC2)nc(NO)c1Br` [Compound 35] gave a pest or weed control at 125 g/ha ([1]; post-emergence, Postemergence, scale 0 to 100 (0 no effect, 100 complete control), read-out: Surinam Grass plant response rating) of 20%, a pest or weed control at 500 g/ha ([1]; post-emergence, Postemergence, scale 0 to 100, read-out: Plant response rating, Surinam Grass) of 80% and a pest or weed control at 125 g/ha ([1]; pre-emergence, Preemergence, scale 0 to 100 (0 no effect, 100 complete control), read-out: Plant response rating, Surinam Grass) of 10%. For the same molecule, the pest or weed control at 500 g/ha ([1]; pre-emergence, Preemergence, scale 0 to 100 (0 no effect, 100 complete control), read-out: Surinam Grass plant response rating) was 60%, the pest or weed control at 125 g/ha ([2]; post-emergence, Postemergence, scale 0 to 100 (0 no effect, 100 complete control), read-out: Barnyardgrass plant response rating) was 40% and the pest or weed control at 500 g/ha ([2]; post-emergence, Postemergence, scale 0 to 100, read-out: Plant response rating, Barnyardgrass) was 90%. For the same molecule, the pest or weed control at 125 g/ha ([2]; pre-emergence, Preemergence, scale 0 to 100 (0 no effect, 100 complete control), read-out: Plant response rating, Barnyardgrass) was 10%, the pest or weed control at 500 g/ha ([2]; pre-emergence, Preemergence, scale 0 to 100 (0 no effect, 100 complete control), read-out: Barnyardgrass plant response rating) was 80% and the pest or weed control at 125 g/ha ([3]; post-emergence, Postemergence, scale 0 to 100 (0 no effect, 100 complete control), read-out: Cocklebur plant response rating) was 30%. For the same molecule, the pest or weed control at 500 g/ha ([3]; post-emergence, Postemergence, scale 0 to 100, read-out: Plant response rating, Cocklebur) was 100%, the pest or weed control at 125 g/ha ([3]; pre-emergence, Preemergence, scale 0 to 100 (0 no effect, 100 complete control), read-out: Plant response rating, Cocklebur) was 60% and the pest or weed control at 500 g/ha ([3]; pre-emergence, Preemergence, scale 0 to 100 (0 no effect, 100 complete control), read-out: Cocklebur plant response rating) was 90%. The plant injury at 125 g/ha ([4]; post-emergence, Postemergence, 125 g ai/ha, scale 0 to 100 (0 no effect, 100 complete control), read-out: Corn plant response rating) was 0%, the Corn plant response rating (crop injury, 0 = no effect, 100 = complete kill) at 500 g/ha ([4]; post-emergence, Postemergence, 500 g ai/ha, scale 0 to 100) was 60% and the Corn plant response rating (crop injury, 0 = no effect, 100 = complete kill) at 125 g/ha ([4]; pre-emergence, Preemergence, 125 g ai/ha, scale 0 to 100 (0 no effect, 100 complete control)) was 0%. It also gave a plant injury at 500 g/ha ([4]; pre-emergence, Preemergence, 500 g ai/ha, scale 0 to 100 (0 no effect, 100 complete control), read-out: Corn plant response rating) of 50%, a pest or weed control at 125 g/ha ([5]; post-emergence, Postemergence, scale 0 to 100 (0 no effect, 100 complete control), read-out: Crabgrass plant response rating) of 20% and a pest or weed control at 500 g/ha ([5]; post-emergence, Postemergence, scale 0 to 100, read-out: Plant response rating, Crabgrass) of 50%. The pest or weed control at 125 g/ha ([5]; pre-emergence, Preemergence, scale 0 to 100 (0 no effect, 100 complete control), read-out: Plant response rating, Crabgrass) was 30%, the pest or weed control at 500 g/ha ([5]; pre-emergence, Preemergence, scale 0 to 100 (0 no effect, 100 complete control), read-out: Crabgrass plant response rating) was 80% and the pest or weed control at 125 g/ha ([6]; post-emergence, Postemergence, scale 0 to 100 (0 no effect, 100 complete control), read-out: Foxtail, Giant plant response rating) was 10%. The pest or weed control at 500 g/ha ([6]; post-emergence, Postemergence, scale 0 to 100, read-out: Plant response rating, Foxtail, Giant) was 60%, the pest or weed control at 125 g/ha ([6]; pre-emergence, Preemergence, scale 0 to 100 (0 no effect, 100 complete control), read-out: Plant response rating, Foxtail, Giant) was 0% and the pest or weed control at 500 g/ha ([6]; pre-emergence, Preemergence, scale 0 to 100 (0 no effect, 100 complete control), read-out: Foxtail, Giant plant response rating) was 70%. It also gave a pest or weed control at 125 g/ha ([7]; post-emergence, Postemergence, scale 0 to 100 (0 no effect, 100 complete control), read-out: Lambsquarters plant response rating) of 90%, a pest or weed control at 500 g/ha ([7]; post-emergence, Postemergence, scale 0 to 100, read-out: Plant response rating, Lambsquarters) of 100% and a pest or weed control at 125 g/ha ([7]; pre-emergence, Preemergence, scale 0 to 100 (0 no effect, 100 complete control), read-out: Plant response rating, Lambsquarters) of 90%. It also gave a pest or weed control at 500 g/ha ([7]; pre-emergence, Preemergence, scale 0 to 100 (0 no effect, 100 complete control), read-out: Lambsquarters plant response rating) of 100%, a pest or weed control at 125 g/ha ([8]; post-emergence, Postemergence, scale 0 to 100 (0 no effect, 100 complete control), read-out: Morningglory plant response rating) of 70% and a pest or weed control at 500 g/ha ([8]; post-emergence, Postemergence, scale 0 to 100, read-out: Plant response rating, Morningglory) of 100%. For the same molecule, the pest or weed control at 125 g/ha ([8]; pre-emergence, Preemergence, scale 0 to 100 (0 no effect, 100 complete control), read-out: Plant response rating, Morningglory) was 70%, the pest or weed control at 500 g/ha ([8]; pre-emergence, Preemergence, scale 0 to 100 (0 no effect, 100 complete control), read-out: Morningglory plant response rating) was 100% and the pest or weed control at 125 g/ha ([9]; post-emergence, Postemergence, scale 0 to 100 (0 no effect, 100 complete control), read-out: Pigweed plant response rating) was 70%. It also gave a pest or weed control at 500 g/ha ([9]; post-emergence, Postemergence, scale 0 to 100, read-out: Plant response rating, Pigweed) of 100%, a pest or weed control at 125 g/ha ([9]; pre-emergence, Preemergence, scale 0 to 100 (0 no effect, 100 complete control), read-out: Plant response rating, Pigweed) of 80% and a pest or weed control at 500 g/ha ([9]; pre-emergence, Preemergence, scale 0 to 100 (0 no effect, 100 complete control), read-out: Pigweed plant response rating) of 100%. For the same molecule, the pest or weed control at 125 g/ha ([10]; post-emergence, Postemergence, scale 0 to 100 (0 no effect, 100 complete control), read-out: Velvetleaf plant response rating) was 50%, the pest or weed control at 500 g/ha ([10]; post-emergence, Postemergence, scale 0 to 100, read-out: Plant response rating, Velvetleaf) was 90% and the pest or weed control at 125 g/ha ([10]; pre-emergence, Preemergence, scale 0 to 100 (0 no effect, 100 complete control), read-out: Plant response rating, Velvetleaf) was 70%. The pest or weed control at 500 g/ha ([10]; pre-emergence, Preemergence, scale 0 to 100 (0 no effect, 100 complete control), read-out: Velvetleaf plant response rating) was 90%, the plant injury at 125 g/ha ([11]; post-emergence, Postemergence, scale 0 to 100 (0 no effect, 100 complete control), read-out: Wheat plant response rating) was 20% and the plant injury at 500 g/ha ([11]; post-emergence, Postemergence, scale 0 to 100, read-out: Plant response rating, Wheat) was 60%. It also gave a plant injury at 125 g/ha [11, 18] of 20%, a plant injury at 500 g/ha [11, 18] of 50% and a pest or weed control at 125 g/ha ([12]; 125 g ai/ha, scale 0 to 100 (0 no effect, 100 complete control), read-out: Blackgrass plant response rating) of 60%. It also gave a pest or weed control at 500 g/ha ([12]; 500 g ai/ha, scale 0 to 100, read-out: Plant response rating, Blackgrass) of 70%, a pest or weed control at 125 g/ha ([13]; 125 g ai/ha, scale 0 to 100 (0 no effect, 100 complete control), read-out: Oat, Wild plant response rating) of 60% and a pest or weed control at 500 g/ha ([13]; 500 g ai/ha, scale 0 to 100, read-out: Plant response rating, Oat, Wild) of 60%. For the same molecule, the pest or weed control at 1000 g/ha [14] was 0%, the pest or weed control at 1000 g/ha [15] was 0% and the plant injury at 1000 g/ha [16] was 0%. The pest or weed control at 1000 g/ha [17] was 0%.
